Laboratory results: PMC3948889, “The Effects of LPM570065, a Novel Triple Reuptake Inhibitor, on Extracellular Serotonin, Dopamine and Norepinephrine Levels in Rats” (PLoS ONE, 2014)
Where two headings read alike, the source gives them in different places.

Experiments:
[1] = test system: immobility time in the forced swim test; details: without significantly altering locomotor activity, cited from earlier work
[2] = test system: extracellular NE levels in the rat striatum; experiment: microdialysis: extracellular NE levels in the rat striatum
[3] = test system: extracellular 5-HT levels in the rat striatum; experiment: microdialysis: extracellular 5-HT levels in the rat striatum
[4] = test system: extracellular DA levels in the rat striatum; experiment: microdialysis: extracellular DA levels in the rat striatum
[5] = test system: immobility time in the forced swim test; details: tested 0.5, 1, 2 and 4 h post-dosing
Protocol: Forced swim test was used to measure the depression-like behavior in rats after acute and chronic drug treatment. Animals were randomly divided into six groups. The animals in Groups 1, 2 and 3 were used for acute treatment, and the animals in Groups 4, 5 and 6 were used for chronic treatment (once a day for 14 days). […] The entire test was performed in 2 consecutive days: a 15-min pretest session on day 1 followed by a 5-min test session the next day. On the pretest day, rats were individually forced to swim for 15 min in a plastic cylinder (diameter 22 cm, height 46 cm) containing water (25±1°C) with a depth of 30 cm. On the test day, rats were placed in the cylinder again for a 5-min test trial at 0.5, 1, 2 and 4 h post-dosing (n = 10 rats per time point in each group). The total duration of immobilization was recorded. The criterion for immobilization was vertical floating in the water and movements necessary to keep the head above the water. After the test, animals were removed and dried with towels before returning to their home cage.

[6] = acute oral administration (oral solution, oral suspension 0.06 mmol·kg^−1)
[7] = chronic oral suspension 0.06 mmol·kg^−1·day^−1 for 14 days

CC(NC(C)(C)C)C(=O)c1cccc(Cl)c1 (stereo not shown) [bupropion]
immobility time in the forced swim test ([1]; 10 mg/kg): reduce the immobility time

CN(C)CC(c1ccc(O)cc1)C1(O)CCCCC1 (stereo not shown) [desvenlafaxine]
effect on extracellular NE levels vs. relative vehicle ([2]; acute intravenous administration 0.04 mmol·kg^−1): marked and significant increases
effect on extracellular NE levels vs. relative vehicle [2, 6]: slight but significant increases
extracellular NE peak value (% of basal) ([2]; chronic oral suspension 0.06 mmol·kg^−1·day^−1 for 14 days, at 60 min): 139±9%
extracellular 5-HT levels increased to (% of basal) ([3]; acute intravenous solution 0.04 mmol·kg^−1, after the initial 90 min decrease, then returned to basal): 162±15%
decrease in extracellular 5-HT levels ([3]; acute intravenous solution 0.04 mmol·kg^−1, during the first 90 min post-dosing): 90%
effect on extracellular 5-HT levels vs. relative vehicle [3, 6]: slight but significant increases
increase in 5-HT AUC0–240 min value of the vehicle group [3, 7]: 187±25%
effect on extracellular DA levels ([4]; acute, oral administration or intravenous administration): did not significantly alter the extracellular DA levels
effect on extracellular DA levels [4, 7]: did not significantly alter the extracellular DA levels
immobility time in the forced swim test vs. vehicle ([5]; acute oral suspension 0.06 mmol·kg^−1): only significantly reduced the immobility time at 1 h
immobility time in the forced swim test vs. vehicle [5, 7]: significantly reduced the immobility time

CN1Cc2c(N)cccc2C(c2ccccc2)C1 (stereo not shown) [nomifensine]
immobility time in the forced swim test ([1]; 2.5 mg/kg): reduce the immobility time
